Earlier results on one compound are cited in patent publication US20230087756A1, “SYSTEMS AND METHODS FOR […] OF BREWED BEVERAGES AND ACTIVE INGREDIENTS” (RECEPTOR HOLDINGS, INC., priority 2020, published 2023).

Structures are written as SMILES.

As to `CCCCCc1cc(O)c2c(c1)OC(C)(C)[C@@H]1CCC(C)=C[C@@H]21` [THC, (−)-trans-delta-9-tetrahydrocannabinol], under “after administration”, the “duration of appetite stimulant effect” value was not below 24 h. For the same compound, where the note is “after most forms of oral administration”, the peak effect was 2 to 4 h. For the same compound, the absorbed (after single oral doses) was 90-95%. Also, the “duration of action for psychoactive effects” value (oral administration) is 4 to 6 h.
